These results are taken from US7276519B2, “Thieno[3,2-b]pyridine-6-carbonitriles and thieno[2,3-b]pyridine-5-carbonitriles as protein kinase inhibitors” (Wyeth, priority 2002, dated 2007).

Several values for one entry are separate records, joined by “and”; a condition that tells them apart may be missing. Equal values may be shown once. Read-outs that look alike come from different tables or passages of the source.

In general, IC50 refers to the concentration that gives 50% inhibition. The melting point is the temperature, or range, at which the solid turns liquid.

The subject of series [1] is Rat2 fibroblasts stably transformed with v-Src/Hu c-Src fusion gene. Put plainly: Anchorage independent Src-transformed fibroblast proliferation assay. The class given is cell-based, rat. Here is the method: Anchorage Independent Src-Transformed Fibroblast Proliferation Assay Rat2 fibroblasts stably transformed with a plasmid containing a CMV promotor controlled v-Src/Hu c-Src fusion gene in which the catalytic domain of human c-Src was inserted in place of the v-Src catalytic domain in the v-Src gene are used for the measurement of src dependent suspension growth. […] Multiple entries for a given compound indicate that it was tested multiple times.

In series [2] the target is T1, Rat2 fibroblasts stably transformed with v-Src/Hu Lck fusion gene (Homo sapiens, UniProt P06239, cells depend on it, form not given).
T1 construct: Candidates are e.g. Schmidt-Ruppin A (P00524) or Prague C (P00526); The human Lck catalytic domain stands in place of the v-Src catalytic domain
Nature of the series: Anchorage independent Lck-transformed fibroblast proliferation assay. Conditions: Table 3; read-out: Lck Cells IC50. The class given is cell-based, rat. The procedure, abridged: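 Rat2 fibroblasts expressing a CMV-driven v-Src/human Lck catalytic-domain fusion grown in suspension on ultra-low attachment plates, 10,000 cells/well. Compound added Day 2 as two-fold dilutions from 10 to 0.009 micromolar; MTS added Day 5, absorbance read at 490 nm. IC50 derived from blank-corrected % of no-compound control.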

For series [3], the target named is T2, Recombinant human Src enzyme (Homo sapiens, UniProt P12931).
T2 construct: purchased PanVera P3044
Put plainly: Src kinase assay (LANCE FRET). The format is biochemical. The following applies: Table 3; 100 μM ATP, biotinylated Cdk1 peptide substrate. The protocol:
Recombinant human Src enzyme was obtained from PanVera (P3044). […] Homogeneous fluorescence resonance energy transfer kinase assays were performed using the europium/APC detection format (LANCE, Perkin Elmer). Src enzyme (10 ng) was mixed with biotinylated peptide (final concentration 2 μM), 50 mM Hepes (pH 7.5), 10 mM MgCl2, 20 μg/ml BSA, 0.001% Brij-35 (sigma), 100 μM ATP, 1% DMSO. The kinase reaction was incubated for 70 min at 37° C. The reaction was stopped with EDTA at a final concentration of 30 mM EDTA/25 mM Hepes (pH 7.5)/10 μg/ml BSA. The mixture was combined with Eu-labeled anti-phosphotyrosine antibody PT66 (Perkin Elmer, AD0068) and Streptavidin Surelight-APC (Perkin Elmer, CR130-100) in 50 mM Hepes (pH 7.5)/20 μg/ml BSA, and incubated for 30 min according to manufacturer's specifications. […] Multiple entries for a given compound indicate that it was tested multiple times.

[4] abbreviates: Rattus norvegicus, Rat2, Table 3, read-out: Src Cells IC50 μM or % inhib at 10 μM (IC50 values).
Setting [5] is: Table 3, read-out: Src Cells IC50 μM or % inhib at 10 μM (IC50 values).
Setting [6] is: Rattus norvegicus, Rat2, read-out: Src Cells IC50 μM or % inhib at 10 μM (IC50 values), Table 3.
[7] abbreviates: read-out: Src Cells IC50 μM or % inhib at 10 μM (IC50 values), Table 3.

T1 sequence (P06239 whole entry, change not shown, the tested form may be a part): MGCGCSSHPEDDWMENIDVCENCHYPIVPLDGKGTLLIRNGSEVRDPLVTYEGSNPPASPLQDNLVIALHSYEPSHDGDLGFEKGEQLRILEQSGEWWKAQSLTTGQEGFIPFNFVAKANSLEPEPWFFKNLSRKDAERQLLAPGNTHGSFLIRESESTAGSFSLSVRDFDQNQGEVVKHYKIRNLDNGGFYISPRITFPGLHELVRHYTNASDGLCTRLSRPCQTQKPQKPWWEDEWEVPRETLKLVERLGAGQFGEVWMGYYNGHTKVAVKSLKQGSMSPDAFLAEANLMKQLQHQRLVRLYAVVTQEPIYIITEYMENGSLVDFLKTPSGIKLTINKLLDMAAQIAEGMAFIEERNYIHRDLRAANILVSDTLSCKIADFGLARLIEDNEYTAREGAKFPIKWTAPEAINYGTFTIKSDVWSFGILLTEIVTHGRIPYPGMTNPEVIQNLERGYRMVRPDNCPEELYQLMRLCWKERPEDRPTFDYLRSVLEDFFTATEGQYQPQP
T2 sequence (P12931 whole entry): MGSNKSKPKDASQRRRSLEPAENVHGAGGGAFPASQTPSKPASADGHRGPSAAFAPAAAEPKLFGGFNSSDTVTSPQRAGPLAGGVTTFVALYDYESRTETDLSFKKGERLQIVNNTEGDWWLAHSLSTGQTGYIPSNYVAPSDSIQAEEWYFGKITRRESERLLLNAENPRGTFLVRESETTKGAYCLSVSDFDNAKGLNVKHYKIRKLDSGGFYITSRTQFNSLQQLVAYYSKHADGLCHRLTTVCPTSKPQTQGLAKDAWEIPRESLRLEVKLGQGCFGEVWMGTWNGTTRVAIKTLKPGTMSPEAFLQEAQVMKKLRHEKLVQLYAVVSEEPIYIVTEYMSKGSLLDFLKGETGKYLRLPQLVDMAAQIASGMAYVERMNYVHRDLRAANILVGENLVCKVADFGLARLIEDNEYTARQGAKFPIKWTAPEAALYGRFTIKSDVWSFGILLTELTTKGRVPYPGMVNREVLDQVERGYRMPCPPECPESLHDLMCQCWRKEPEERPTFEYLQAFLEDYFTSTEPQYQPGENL

`COc1cc(Nc2c(C#N)cnc3c(-c4ccc(CN5CCN(C)CC5)cc4)csc23)c(Cl)cc1Cl` [Example 142, 7-[(2,4-dichloro-5-methoxyphenyl)amino]-3-{4-[(4-methylpiperazin-1-yl)methyl]phenyl}thieno[3,2-b]pyridine-6-carbonitrile] showed a melting point of 197 to 198 °C. The IC50 in series [1] (setting [4]) worked out at 3.25 µM. For the same molecule, the IC50 in series [1] (setting [5]) turned out to be 1.99 µM. The GI50 in series [2] is 3540 nM and 4350 nM. For the same molecule, the IC50 in series [3] was greater than 10000 nM.
The molecule `COc1cc(Nc2c(C#N)cnc3cc(-c4ccc(CN5CC[S+]([O-])CC5)cc4)sc23)c(Cl)cc1Cl` [Example 105, 7-[(2,4-dichloro-5-methoxyphenyl)amino]-2-{4-[(1-oxidothiomorpholin-4-yl)methyl]phenyl}thieno[3,2-b]pyridine-6-carbonitrile] gave a melting point of 242 to 245 °C. Further, the IC50 in series [1] (setting [4]) worked out at 0.473 µM. Further, the IC50 in series [1] (setting [5]) amounted to 0.55 µM. The GI50 in series [2] is 222 nM and 235 nM. Moreover, in series [3], the IC50 was 8.5 nM and 7 nM.
As for `COc1cc(Nc2c(C#N)cnc3cc(-c4ccc(CCN(C)C)cc4)sc23)c(Cl)cc1Cl` [Example 134, 7-[(2,4-dichloro-5-methoxyphenyl)amino]-2-{4-[2-(dimethylamino)ethyl]phenyl}thieno[3,2-b]pyridine-6-carbonitrile], the melting point fell in the range of 196 to 197 °C. Also, the half-inhibitory concentration (IC50) in series [1] (setting [6]) came out at 0.505 µM. For the same molecule, the IC50 in series [1] (setting [7]) turned out to be 0.337 µM. Moreover, the GI50 in series [2] is 130 nM and 170 nM. Also, the IC50 in series [3] is 7.6 nM and 10 nM.
For `COc1cc(Nc2c(C#N)cnc3cc(-c4ccc(CN5CCN(C)CC5)cn4)sc23)c(Cl)cc1Cl` [Example 103, 7-[(2,4-dichloro-5-methoxyphenyl)amino]-2-{5-[(4-methylpiperazin-1-yl)methyl]pyridin-2-yl}thieno[3,2-b]pyridine-6-carbonitrile], the melting point was 229 to 232 °C. In series [1] (setting [4]), the IC50 was 0.401 µM. The IC50 in series [1] (setting [5]) is 0.445 µM. In addition, the GI50 in series [2] is 58 nM and 71 nM. Besides, in series [3], the half-inhibitory concentration (IC50) is 11 nM and 9.6 nM.
With `COc1cc(Nc2c(C#N)cnc3cc(-c4ccc(CN5CCSCC5)cc4)sc23)c(Cl)cc1Cl` [Example 94, 7-[(2,4-dichloro-5-methoxyphenyl)amino]-2-[4-(thiomorpholin-4-ylmethyl)phenyl]thieno[3,2-b]pyridine-6-carbonitrile], the melting point was 198 to 201 °C. For the same molecule, the IC50 in series [1] (setting [6]) worked out at 5.52 µM. For the same molecule, the IC50 in series [1] (setting [7]) is 2.92 µM and 3.17 µM. The GI50 in series [2] is 932 nM and 907 nM and 1170 nM. The half-maximal inhibitory concentration (IC50) in series [3] was 58 nM and 46 nM.
Molecule `COc1cc(Nc2c(C#N)cnc3cc(-c4ccc(CNCCCO)cc4)sc23)c(Cl)cc1Cl` [Example 107, 7-[(2,4-dichloro-5-methoxyphenyl)amino]-2-(4-{[(3-hydroxypropyl)amino]methyl}phenyl)thieno[3,2-b]pyridine-6-carbonitrile] displayed a melting point of 141 to 143 °C. Besides, the 50% inhibitory concentration (IC50) in series [1] (setting [4]) turned out to be 0.531 µM. In series [1] (setting [5]), the IC50 was 0.543 µM. Also, in series [2], the GI50 is 63 nM and 65 nM. Also, in series [3], the IC50 was 9 nM and 11 nM.
In turn, `CCCCNCc1ccc(-c2cc3ncc(C#N)c(Nc4cc(OC)c(Cl)cc4Cl)c3s2)cc1` [Example 104, 2-{4-[(butylamino)methyl]phenyl}-7-[(2,4-dichloro-5-methoxyphenyl)amino]thieno[3,2-b]pyridine-6-carbonitrile] showed a melting point of 167 to 169 °C. In addition, the IC50 in series [1] (setting [4]) came to 0.837 µM. Moreover, the IC50 in series [1] (setting [5]) was determined as 0.939 µM. Moreover, the GI50 in series [2] was 252 nM and 235 nM. The IC50 in series [3] is 10 nM and 12 nM.
Turning to `CCN1CCN(Cc2ccc(-c3cc4ncc(C#N)c(Nc5cc(OC)c(Cl)cc5Cl)c4s3)cc2)CC1` [Example 70, 7-[(2,4-dichloro-5-methoxyphenyl)amino]-2-{4-[(4-ethylpiperazin-1-yl)methyl]phenyl}thieno[3,2-b]pyridine-6-carbonitrile], the melting point fell in the range of 198 to 200 °C. Further, in series [1] (setting [6]), the half-inhibitory concentration (IC50) turned out to be 0.68 µM. In series [1] (setting [7]), the IC50 was found to be 0.58 µM. The GI50 in series [2] was 120 nM and 110 nM. Further, the 50% inhibitory concentration (IC50) in series [3] was 7.3 nM and 9.2 nM.
`COc1cc(Nc2c(C#N)cnc3c(-c4ccc(CN5CCOCC5)cc4)csc23)c(Cl)cc1Cl` [Example 143, 7-[(2,4-dichloro-5-methoxyphenyl)amino]-3-[4-(morpholin-4-ylmethyl)phenyl]thieno[3,2-b]pyridine-6-carbonitrile] gave a melting point of 184 to 185 °C. Also, the inhibition at 10 µM in series [1] (Rattus norvegicus, Rat2, Table 3, at 10 μM, read-out: Src Cells IC50 μM or % inhib at 10 μM (% values)) came out at 61%. The “Src Cells IC50 μM or % inhib at 10 μM (% values)” value in series [1] (Table 3, at 10 μM) was determined as 45%. Also, the GI50 in series [2] is greater than 10000 nM. Further, the IC50 in series [3] was greater than 10000 nM.
In turn, `COc1cc(Nc2c(C#N)cnc3cc(-c4ccc(N(C)C)cc4)sc23)c(Cl)cc1Cl` [Example 73, 7-[(2,4-dichloro-5-methoxyphenyl)amino]-2-[4-(dimethylamino)phenyl]thieno[3,2-b]pyridine-6-carbonitrile] registered a melting point of 255 to 258 °C. Further, in series [1] (setting [6]), the concentration for half-maximal inhibition (IC50) was 1.4 µM. Besides, the IC50 in series [1] (setting [7]) stood at 1.1 µM. Further, the GI50 in series [2] is 1200 nM and 1100 nM. The IC50 in series [3] was 120 nM and 94 nM.
In the case of `COc1cc(Nc2c(C#N)cnc3cc(-c4ccc(CN5CCOCC5)cn4)sc23)c(Cl)cc1Cl` [Example 108, 7-[(2,4-dichloro-5-methoxyphenyl)amino]-2-[5-(morpholin-4-ylmethyl)pyridin-2-I]thieno[3,2-b]pyridine-6-carbonitrile], the melting point lay in the range of 227 to 229 °C. For the same molecule, the IC50 in series [1] (setting [4]) is 0.474 µM. Further, in series [1] (setting [5]), the IC50 amounted to 0.319 µM. In series [2], the GI50 is 201 nM and 240 nM. In addition, in series [3], the IC50 is 13 nM and 12 nM.
In turn, `COc1cc(Nc2c(C#N)cnc3cc(-c4ccc(CNCCSC)cc4)sc23)c(Cl)cc1Cl` [Example 93, 7-[(2,4-dichloro-5-methoxyphenyl)amino]-2-[4-({[2-(methylthio)ethyl]amino}methyl)phenyl]thieno[3,2-b]pyridine-6-carbonitrile] had a melting point of 154 to 156 °C. Further, the IC50 in series [1] (setting [4]) came to 1.22 µM. Moreover, in series [1] (setting [5]), the IC50 is 0.638 µM. The GI50 in series [2] is 341 nM and 276 nM. Also, the IC50 in series [3] was 15 nM and 16 nM.
In the case of `COc1cc(Nc2c(C#N)cnc3cc(-c4cccc(CN(C)C)n4)sc23)c(Cl)cc1Cl` [Example 128, 7-[(2,4-dichloro-5-methoxyphenyl)amino]-2-{6-[(dimethylamino)methyl]pyridin-2-yl}thieno[3,2-b]pyridine-6-carbonitrile], the melting point lay within 221 to 223 °C. The GI50 in series [2] was 539 nM and 557 nM. Besides, the IC50 in series [3] is 66 nM and 69 nM.
`COc1cc(Nc2c(C#N)cnc3cc(-c4csc(CN(C)C)c4)sc23)c(Cl)cc1Cl` [Example 80, 7-[(2,4-dichloro-5-methoxyphenyl)amino]-2-{5-[(dimethylamino)methyl]thien-3-yl}thieno[3,2-b]pyridine-6-carbonitrile] registered a melting point of 184 to 186 °C. Moreover, the IC50 in series [1] (setting [6]) stood at 0.79 µM. Moreover, the IC50 in series [1] (setting [7]) is 0.58 µM. Moreover, the GI50 in series [2] was 74 nM and 73 nM. Further, in series [3], the IC50 was 13 nM and 14 nM.
For `COc1cc(Nc2c(C#N)cnc3cc(-c4ccsc4CN4CCN(C)CC4)sc23)c(Cl)cc1Cl` [Example 84, 7-[(2,4-dichloro-5-methoxyphenyl)amino]-2-{2-[(4-methylpiperazin-1-yl)methyl]thien-3-yl}thieno[3,2-b]pyridine-6-carbonitrile], the melting point fell in the range of 218 to 219 °C. Also, the IC50 in series [1] (setting [6]) was 3.3 µM. In addition, the GI50 in series [2] was 3400 nM. Also, the IC50 in series [3] was 320 nM and 580 nM and 347 nM.
`COc1cc(Nc2c(C#N)cnc3cc(-c4cccc(CN(C)C)c4)sc23)c(Cl)cc1Cl` [Example 75, 7-[(2,4-dichloro-5-methoxyphenyl)amino]-2-{3-[(dimethylamino)methyl]phenyl}thieno[3,2-b]pyridine-6-carbonitrile]: the melting point fell in the range of 204 to 206 °C. Also, in series [1] (setting [4]), the IC50 came to 1.5 µM. Further, the IC50 in series [1] (setting [5]) was 0.97 µM. Further, in series [2], the GI50 is 320 nM and 270 nM. For the same molecule, in series [3], the IC50 was 26.3 nM and 34.7 nM.
